We go through one molecule from patent publication US9540647B2, “Methods and compositions for the treatment of cancer” (University of South Alabama, priority 2010, dated 2017).

Read-outs that look alike come from different tables or passages of the source.

For test [1], the system named is c-jun. Put plainly: c-jun and c-fos protein expression and c-jun phosphorylation in A2780-CP70 cells (Western blot). Type of test: cell-based, human. Conditions: IC50 dose of cisplatin. On the procedure: c-jun protein expression was assessed in cisplatin-treated A2780-CP70 cells using Western blot analysis.
Protein expression of c-fos and phosphorylation of c-jun in cyclopamine-treated A2780-CP70 cells was assessed using Western blot analysis. Protein levels for c-jun, c-fos, phosphorylated c-jun (Ser 63), phosphorylated c-jun (Ser 73), and phosphorylated c-jun (Thr 91, Thr 93) were tested in cytosolic, nuclear, and whole cell fractions at 0 hr, 6 hr, 24 hr, 48 hr, and 72 hr. Internal controls for cytosolic and nuclear fractions included α-tubulin and histone deacetylase 3.
Phosphorylation of c-jun in A2780-CP70 cells transfected with anti-GLI1 shRNA construct was assessed using Western blot analysis. Protein levels for c-jun, phosphorylated c-jun (Ser 63), phosphorylated c-jun (Ser 73), and phosphorylated c-jun (Thr 91, Thr 93) were examined at 0 hr, 6 hr, 24 hr, 48 hr, and 72 hr.
(In western blotting, separated proteins are transferred to a membrane and probed.)

In test [2] the test system is ERCC1, XPD, XRCC1. As to the kind of experiment: ERCC1, XPD and XRCC1 mRNA levels in A2780-CP70 cells (semi-quantitative PCR). Type of test: cell-based, human. The following applies: cells treated with cisplatin.
Test [3] relates to A2780-CP70 cells. Conditions: A2780-CP70, cisplatin-resistant; cited from earlier work.
Test [4] deals with c-jun. Conditions: cited from earlier work.
Test [5] concerns ERCC1, XPD, XRCC1. Conditions: cited from earlier work.
Test [6] has as its system A2780-CP70 cells. As to the kind of experiment: Cisplatin sensitivity of A2780-CP70 cells (percent cell growth). Conditions: read-out: IC50 of cisplatin.
Procedure: Controls included α-tubulin and histone deactylase.
Transfected cells were treated with 0 μM, 2 μM, 5 μM, 10 μM, 30 μM, and 50 μM cisplatin at 24 hr post-transfection.

By IC50 is commonly meant the point on the concentration scale where inhibition reaches its midpoint. `N.N.[Cl][Pt][Cl]` [cisplatin]: the c-jun protein expression result in the test on c-jun [1] was “increased substantial between 0-6 hr”. Moreover, the “expression levels of ERCC1, XPD, and XRCC1 proteins, increase” value in the test with ERCC1, XPD, XRCC1 [2] is 5 fold. The concentration for half-maximal inhibition (IC50) in the test with A2780-CP70 cells [3] was around 40 µM; in the test with A2780-CP70 cells [6] (cells transfected with 0.07 μg/well anti-Gli1 shRNA construct, cisplatin at 24 hr post-transfection), 8 µM; in the test on A2780-CP70 cells [6] (control cells) it was 28 µM. Moreover, in the test with c-jun [4] (3-5 hr after cisplatin treatment), the “phosphorylation of c-jun protein, peak over baseline” value is 15 fold. The “time of peak c-jun (Ser 63/73) protein levels” value with c-jun [4] (after cisplatin exposure) is 3 to 5 h. The “expected increase in ERCC1 mRNA levels” value in the test with ERCC1, XPD, XRCC1 [5] (cells treated with cisplatin only) is 6 fold. The “ERCC1 mRNA half-life” value in the test on ERCC1, XPD, XRCC1 [5] (cisplatin-treated cells (14 hr in untreated cells)) is 24 h. Besides, in the test on ERCC1, XPD, XRCC1 [5] (previous experiments, agents at IC50 doses), the “ERCC1, XPD, or XRCC1 regulation” value is on record as “up-regulated”.
